Data from paper PMC12112966 (2025).

Columns and labels:
Experiment in all cases: BLI, immobilised aptamer
[1] = tested on: JD-1 (DNA, aptamer) GAATGGACCCGGTATAATTCCCTCAAGAGTGCCAATTTCA; details: 2.7 mM KCl, 1.5 mM KH2PO4, 0.1 M NaCl, 20 mM Na2HPO4, 0.6 mM MgCl2, 0.9 mM CaCl2; selection buffer, pH 7.4; BLI response below 0.1 nm
[2] = tested on: JD-2 (DNA, aptamer) AAAAGACTTAGTGTTGTCCTATGTATAAGTGCCAATTTCA; details: 2.7 mM KCl, 1.5 mM KH2PO4, 0.1 M NaCl, 20 mM Na2HPO4, 0.6 mM MgCl2, 0.9 mM CaCl2; selection buffer, pH 7.4; BLI response below 0.1 nm
[3] = tested on: JD2-RM3-27C28T (DNA, aptamer) AAAAGACTTAGTGTTGTCCTATGTATCT; details: 2.7 mM KCl, 1.5 mM KH2PO4, 0.1 M NaCl, 20 mM Na2HPO4, 0.6 mM MgCl2, 0.9 mM CaCl2; selection buffer, pH 7.4; same concentration as AZA-2
[4] = tested on: JD-3 (DNA, aptamer) ACTAGTGCAAATCTATTCCTATGTTACAGTGCCAATTTCA; details: 2.7 mM KCl, 1.5 mM KH2PO4, 0.1 M NaCl, 20 mM Na2HPO4, 0.6 mM MgCl2, 0.9 mM CaCl2; selection buffer, pH 7.4; BLI response below 0.1 nm
[5] = tested on: JD3-RMM1 (DNA, aptamer) ACTAGGGCAAATCTATACAGTGCCAATTTCA; details: 2.7 mM KCl, 1.5 mM KH2PO4, 0.1 M NaCl, 20 mM Na2HPO4, 0.6 mM MgCl2, 0.9 mM CaCl2; selection buffer, pH 7.4; same concentration as AZA-2

binding [1]: no
binding [2]: no
binding [3]: no
binding [4]: no
binding [5]: no
SMILES: C=C1[C@@H](O)[C@@H]2O[C@]3(CC[C@H](/C=C/[C@@H](C)[C@@H]4CC(C)=C[C@@]5(O[C@H](C[C@@](C)(O)C(=O)O)CC[C@H]5O)O4)O3)CC[C@H]2O[C@@H]1[C@@H](O)C[C@H](C)[C@H]1O[C@@]2(CCCCO2)CC[C@H]1C
